For one assay, the system named is KG-1 cells. Kind of assay: Antiproliferative activity against KG-1 cells (CCK8). It counts as cell-based. The following applies: Homo sapiens, 72 h incubation, CCK8 method. The method, then: KG-1 cells in the logarithmic growth phase were diluted in a culture medium (RPMI+10% FBS) and plated onto 96-well plates at 5000 cells/well, and the plates were incubated in an incubator at 37° C. with 5% CO2 for 24 h. 10 mM stock solutions of the test compounds of the present disclosure in DMSO were prepared and diluted with the culture medium to set 9 concentration gradients. 3 replicate wells were set for each concentration. After compound addition, the plates were incubated in an incubator at 37° C. with 5% CO2 for 72 h. The cell proliferation was assessed using the CCK8 method. The cell growth inhibition IC50 values of the compounds were determined using an enzyme labeling method. The IC50 values were calculated using GraphPad Prism 7 software.
The antiproliferative activity of the compounds against KG-1 cells is shown in Table 2, where A represents IC50≤30 nM, B represents 30<IC50≤300 nM, and C represents IC50>300 nM.

The next assay deals with T1, GSPT1 protein (Homo sapiens, UniProt P15170+Q96SW2).
T1 construct: Whole cell lysates were prepared; endogenous in cells; host or cells: KG-1 cells
T1 sequence (P15170 whole entry): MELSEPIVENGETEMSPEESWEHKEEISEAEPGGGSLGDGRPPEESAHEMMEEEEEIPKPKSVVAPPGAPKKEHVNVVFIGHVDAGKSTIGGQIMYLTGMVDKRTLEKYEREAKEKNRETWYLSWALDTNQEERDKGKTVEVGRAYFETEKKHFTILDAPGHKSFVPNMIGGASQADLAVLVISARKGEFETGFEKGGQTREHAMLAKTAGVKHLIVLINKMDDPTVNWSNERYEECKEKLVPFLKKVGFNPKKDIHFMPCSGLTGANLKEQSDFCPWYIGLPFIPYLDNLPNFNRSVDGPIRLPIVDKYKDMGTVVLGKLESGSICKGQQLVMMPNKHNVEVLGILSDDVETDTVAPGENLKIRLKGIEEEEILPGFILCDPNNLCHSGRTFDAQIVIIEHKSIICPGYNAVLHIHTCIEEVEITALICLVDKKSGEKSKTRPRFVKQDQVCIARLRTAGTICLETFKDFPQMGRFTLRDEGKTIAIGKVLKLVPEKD
T1 sequence (Q96SW2 whole entry): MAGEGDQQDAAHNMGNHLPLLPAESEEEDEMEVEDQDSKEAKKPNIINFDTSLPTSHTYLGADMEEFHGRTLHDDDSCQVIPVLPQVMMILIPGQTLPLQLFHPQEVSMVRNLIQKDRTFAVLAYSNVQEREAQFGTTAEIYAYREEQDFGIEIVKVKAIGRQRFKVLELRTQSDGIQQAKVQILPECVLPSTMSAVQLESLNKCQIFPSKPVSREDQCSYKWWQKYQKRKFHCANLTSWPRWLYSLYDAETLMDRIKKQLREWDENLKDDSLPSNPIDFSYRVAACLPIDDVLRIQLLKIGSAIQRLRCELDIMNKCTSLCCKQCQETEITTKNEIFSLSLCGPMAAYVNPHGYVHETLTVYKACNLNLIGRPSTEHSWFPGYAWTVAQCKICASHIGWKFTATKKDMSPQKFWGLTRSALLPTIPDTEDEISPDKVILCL
T1 sequence (Q16531 whole entry partner): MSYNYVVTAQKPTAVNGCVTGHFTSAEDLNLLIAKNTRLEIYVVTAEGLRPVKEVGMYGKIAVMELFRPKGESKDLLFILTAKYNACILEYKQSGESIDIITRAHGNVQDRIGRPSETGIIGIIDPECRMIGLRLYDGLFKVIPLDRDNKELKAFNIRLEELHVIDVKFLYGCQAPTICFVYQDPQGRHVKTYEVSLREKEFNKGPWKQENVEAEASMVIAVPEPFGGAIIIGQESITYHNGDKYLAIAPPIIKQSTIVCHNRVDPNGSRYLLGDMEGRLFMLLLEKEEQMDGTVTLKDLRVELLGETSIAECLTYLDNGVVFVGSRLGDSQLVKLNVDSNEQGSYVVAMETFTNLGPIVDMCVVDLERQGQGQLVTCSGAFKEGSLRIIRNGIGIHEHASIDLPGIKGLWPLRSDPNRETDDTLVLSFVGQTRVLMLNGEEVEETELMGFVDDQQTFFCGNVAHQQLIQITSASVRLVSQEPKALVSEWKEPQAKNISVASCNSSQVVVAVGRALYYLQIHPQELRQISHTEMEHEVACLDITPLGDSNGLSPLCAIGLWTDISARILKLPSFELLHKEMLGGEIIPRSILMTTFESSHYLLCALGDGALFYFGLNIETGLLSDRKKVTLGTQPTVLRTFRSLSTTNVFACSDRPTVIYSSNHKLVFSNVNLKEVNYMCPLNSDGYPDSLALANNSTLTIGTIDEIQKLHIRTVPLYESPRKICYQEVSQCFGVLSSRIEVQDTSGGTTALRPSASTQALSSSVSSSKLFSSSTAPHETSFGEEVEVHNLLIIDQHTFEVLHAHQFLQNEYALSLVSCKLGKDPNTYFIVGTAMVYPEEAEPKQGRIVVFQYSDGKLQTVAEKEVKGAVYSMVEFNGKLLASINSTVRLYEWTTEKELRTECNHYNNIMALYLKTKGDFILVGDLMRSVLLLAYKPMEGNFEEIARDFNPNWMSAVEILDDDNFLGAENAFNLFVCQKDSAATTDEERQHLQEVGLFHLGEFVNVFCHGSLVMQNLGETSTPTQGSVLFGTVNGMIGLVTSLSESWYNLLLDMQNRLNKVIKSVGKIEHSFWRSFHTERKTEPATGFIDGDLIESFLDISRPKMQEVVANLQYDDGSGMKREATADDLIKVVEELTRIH
The experiment in a line: Degradation of GSPT1 in KG-1 cells (Western blot). The conditions noted are these: compound concentration 200 nM, 4 h incubation. It counts as cell-based. The method, then:
KG-1 cells were grown in an IMDM culture medium (containing 20% FBS). After centrifugation and counting, the cell concentration was adjusted. The cells were plated onto 6-well plates at 10^6 cells/well, with 1350 μL per well. 150 μL of DMSO and the test compounds of the present disclosure (compound concentration: 200 nM) were added. The plates were incubated in an incubator at 37° C. with 5% CO2 for 4 h. The cells were centrifuged, and the culture medium was discarded. PBS was added to wash the cells and then discarded. Whole cell lysates were prepared using a protease inhibitor cocktail (100×, Fude Biological), a protein phosphatase inhibitor cocktail (100×, Fude Biological), Super Nuclease (Beyotime), and a high-intensity RIPA lysis buffer (Thermo Fisher) and placed on ice for 30 min. After centrifugation, the cell debris precipitates were discarded, and the whole cell lysate supernatants were collected and transferred to new centrifuge tubes. After a BCA protein assay, samples were prepared using a 5× loading buffer (Thermo Fisher). The samples were subjected to protein electrophoresis separation in a 4-20% precast gel (SDS-PAGE gel), transferred to a PVDF membrane, blocked with 5% NFDM/TBST at room temperature for 1 h, incubated overnight with primary antibodies at 4° C., and incubated with a secondary antibody at room temperature for 2 h the next day. Signals were detected using a MINICHEMITM imaging system.
• Anti-GSPT1: Abcam ab234433 • Anti-beta actin: Fude Biological FD0060
• Anti-rabbit peroxidase-linked secondary antibody: Fude Biological FDG007
The degradation effects of the compounds on GSPT1 protein are shown in Table 1, where A represents a GSPT1 protein degradation percentage of no less than 70%, B represents a degradation percentage of less than 70% but no less than 30%, and C represents a degradation percentage of less than 30%.
(In general: Immunoblotting shows a protein as a band on a membrane.)

This note sets out measurements from patent US20260263459A1, “PHTHALAZINONE GSPT1 PROTEIN DEGRADING AGENT AND USE THEREOF” (CHINA PHARMACEUTICAL UNIVERSITY, priority 2023, published 2026).

SMILES strings stand for the structures.

As a reminder, the IC50 is the point on the concentration scale where inhibition reaches its midpoint. A lower IC50 goes with inhibition by little substance. As usually defined, the inhibition is the relative decrease from the control value, in per cent. A higher inhibition goes with a strong effect.

In the assay on KG-1 cells, `O=C1CCC(n2ncc3cc(CNC(=O)C4=Cc5ccccc5OC4)ccc3c2=O)C(=O)N1` (stereo not shown) [Compound T-1, N-((2-(2,6-Dioxopiperidin-3-yl)-1-oxo-1,2-dihydrophthalazin-6-yl)methyl)-2H-chromene-3-carboxamide] gave an IC50 of 30 to 300 nM. The inhibition at 0.2 µM at GSPT1 protein fell in the range of 30 to 70%.

For the molecule `O=C1CCC(n2ncc3cc(CNC(=O)C4=Cc5c(F)cccc5OC4)ccc3c2=O)C(=O)N1` (stereo not shown) [Compound T-2, N-((2-(2,6-Dioxopiperidin-3-yl)-1-oxo-1,2-dihydrophthalazin-6-yl)methyl)-5-fluoro-2H-chromene-3-carboxamide], in the assay on KG-1 cells, the IC50 is no more than 30 nM. This molecule registered an inhibition at 0.2 µM at GSPT1 protein of no less than 70%.

In turn, `O=C1CCC(n2ncc3cc(CNC(=O)C4=Cc5cc(F)ccc5OC4)ccc3c2=O)C(=O)N1` (stereo not shown) [Compound T-3, N-((2-(2,6-Dioxopiperidin-3-yl)-1-oxo-1,2-dihydrophthalazin-6-yl)methyl)-6-fluoro-2H-chromene-3-carboxamide] returned an IC50 in the assay on KG-1 cells of 30 to 300 nM. This molecule also gave an inhibition at 0.2 µM against GSPT1 protein of 30 to 70%.

In turn, `O=C1CCC(n2ncc3cc(CNC(=O)C4=Cc5ccc(F)cc5OC4)ccc3c2=O)C(=O)N1` (stereo not shown) [Compound T-4, N-((2-(2,6-Dioxopiperidin-3-yl)-1-oxo-1,2-dihydrophthalazin-6-yl)methyl)-7-fluoro-2H-chromene-3-carboxamide] gave an IC50 in the assay with KG-1 cells of 30 to 300 nM. This molecule also yielded an inhibition at 0.2 µM against GSPT1 protein of 30 to 70%.

With `O=C1CCC(n2ncc3cc(CNC(=O)C4=Cc5cccc(F)c5OC4)ccc3c2=O)C(=O)N1` (stereo not shown) [Compound T-5, N-((2-(2,6-Dioxopiperidin-3-yl)-1-oxo-1,2-dihydrophthalazin-6-yl)methyl)-8-fluoro-2H-chromene-3-carboxamide], in the assay with KG-1 cells, the half-maximal inhibitory concentration (IC50) was no more than 30 nM. The inhibition at 0.2 µM against GSPT1 protein fell in the range of 30 to 70%.

With `COc1cccc2c1OCC(C(=O)NCc1ccc3c(=O)n(C4CCC(=O)NC4=O)ncc3c1)=C2` (stereo not shown) [Compound T-6, N-((2-(2,6-Dioxopiperidin-3-yl)-1-oxo-1,2-dihydrophthalazin-6-yl)methyl)-8-methoxy-2H-chromene-3-carboxamide], the IC50 with KG-1 cells lay in the range of 30 to 300 nM. The same molecule had an inhibition at 0.2 µM on GSPT1 protein of 30 to 70%.

As for `COc1cccc2c1C=C(C(=O)NCc1ccc3c(=O)n(C4CCC(=O)NC4=O)ncc3c1)CO2` (stereo not shown) [Compound T-7, N-((2-(2,6-Dioxopiperidin-3-yl)-1-oxo-1,2-dihydrophthalazin-6-yl)methyl)-5-methoxy-2H-chromene-3-carboxamide], in the assay on KG-1 cells, the IC50 was no more than 30 nM. In addition, the inhibition at 0.2 µM on GSPT1 protein is no less than 70%.

Molecule `COc1ccc2c(c1)C=C(C(=O)NCc1ccc3c(=O)n(C4CCC(=O)NC4=O)ncc3c1)CO2` (stereo not shown) [Compound T-8, N-((2-(2,6-Dioxopiperidin-3-yl)-1-oxo-1,2-dihydrophthalazin-6-yl)methyl)-6-methoxy-2H-chromene-3-carboxamide] showed an IC50 with KG-1 cells of 30 to 300 nM. On GSPT1 protein, the inhibition at 0.2 µM fell in the range of 30 to 70%.

With `O=C1CCC(n2ncc3cc(CNC(=O)C4=Cc5cccc(OC(F)(F)F)c5OC4)ccc3c2=O)C(=O)N1` (stereo not shown) [Compound T-9, N-((2-(2,6-Dioxopiperidin-3-yl)-1-oxo-1,2-dihydrophthalazin-6-yl)methyl)-8-(trifluoromethoxy)-2H-chromene-3-carboxamide], the IC50 in the assay on KG-1 cells was no more than 30 nM. In addition, the inhibition at 0.2 µM at GSPT1 protein was in the range of 30 to 70%.

`O=C1CCC(n2ncc3cc(CNC(=O)C4=Cc5cc(OC(F)(F)F)ccc5OC4)ccc3c2=O)C(=O)N1` (stereo not shown) [Compound T-10, N-((2-(2,6-Dioxopiperidin-3-yl)-1-oxo-1,2-dihydrophthalazin-6-yl)methyl)-6-(trifluoromethoxy)-2H-chromene-3-carboxamide] yielded an IC50 with KG-1 cells of no more than 30 nM. This molecule displayed an inhibition at 0.2 µM at GSPT1 protein of no less than 70%.

Molecule `Cc1cccc2c1OCC(C(=O)NCc1ccc3c(=O)n(C4CCC(=O)NC4=O)ncc3c1)=C2` (stereo not shown) [Compound T-11, N-((2-(2,6-Dioxopiperidin-3-yl)-1-oxo-1,2-dihydrophthalazin-6-yl)methyl)-8-methyl-2H-chromene-3-carboxamide] gave an IC50 in the assay on KG-1 cells of 30 to 300 nM. The molecule further had an inhibition at 0.2 µM against GSPT1 protein of 30 to 70%.

`Cc1ccc2c(c1)C=C(C(=O)NCc1ccc3c(=O)n(C4CCC(=O)NC4=O)ncc3c1)CO2` (stereo not shown) [Compound T-12, N-((2-(2,6-Dioxopiperidin-3-yl)-1-oxo-1,2-dihydrophthalazin-6-yl)methyl)-6-methyl-2H-chromene-3-carboxamide]: the IC50 in the assay with KG-1 cells was 30 to 300 nM. Further, on GSPT1 protein, the inhibition at 0.2 µM fell in the range of 30 to 70%.

`O=C1CCC(n2ncc3cc(CNC(=O)C4=Cc5cc(Cl)ccc5OC4)ccc3c2=O)C(=O)N1` (stereo not shown) [Compound T-13, 6-Chloro-N-((2-(2,6-dioxopiperidin-3-yl)-1-oxo-1,2-dihydrophthalazin-6-yl)methyl)-2H-chromene-3-carboxamide] gave an IC50 in the assay with KG-1 cells of 30 to 300 nM. The inhibition at 0.2 µM on GSPT1 protein was 30 to 70%.

For the molecule `O=C1CCC(n2ncc3cc(CNC(=O)C4=Cc5cc(Br)ccc5OC4)ccc3c2=O)C(=O)N1` (stereo not shown) [Compound T-14, 6-Bromo-N-((2-(2,6-dioxopiperidin-3-yl)-1-oxo-1,2-dihydrophthalazin-6-yl)methyl)-2H-chromene-3-carboxamide], in the assay on KG-1 cells, the IC50 was in the range of 30 to 300 nM. The same molecule gave an inhibition at 0.2 µM against GSPT1 protein of 30 to 70%.

With `O=C1CCC(n2ncc3cc(CNC(=O)C4=Cc5c(cccc5C(F)(F)F)OC4)ccc3c2=O)C(=O)N1` (stereo not shown) [Compound T-15, N-((2-(2,6-Dioxopiperidin-3-yl)-1-oxo-1,2-dihydrophthalazin-6-yl)methyl)-5-(trifluoromethyl)-2H-chromene-3-carboxamide], the IC50 with KG-1 cells is no more than 30 nM. At GSPT1 protein, this molecule yielded an inhibition at 0.2 µM of no less than 70%.

In turn, `C=Cc1ccc2c(c1)C=C(C(=O)NCc1ccc3c(=O)n(C4CCC(=O)NC4=O)ncc3c1)CO2` (stereo not shown) [Compound T-16, N-((2-(2,6-Dioxopiperidin-3-yl)-1-oxo-1,2-dihydrophthalazin-6-yl)methyl)-6-vinyl-2H-chromene-3-carboxamide] registered an IC50 in the assay with KG-1 cells greater than 300 nM. Further, the inhibition at 0.2 µM at GSPT1 protein was less than 30%.

In the assay on KG-1 cells, `CC(C)(C)c1ccc2c(c1)C=C(C(=O)NCc1ccc3c(=O)n(C4CCC(=O)NC4=O)ncc3c1)CO2` (stereo not shown) [Compound T-17, 6-(tert-Butyl)-N-((2-(2,6-dioxopiperidin-3-yl)-1-oxo-1,2-dihydrophthalazin-6-yl)methyl)-2H-chromene-3-carboxamide] displayed an IC50 of no more than 30 nM. Besides, the inhibition at 0.2 µM against GSPT1 protein was no less than 70%.

In the case of `O=C1CCC(n2ncc3cc(CNC(=O)C4=Cc5cc(-c6ccccc6)ccc5OC4)ccc3c2=O)C(=O)N1` (stereo not shown) [Compound T-18, N-((2-(2,6-Dioxopiperidin-3-yl)-1-oxo-1,2-dihydrophthalazin-6-yl)methyl)-6-phenyl-2H-chromene-3-carboxamide], the IC50 in the assay with KG-1 cells was no more than 30 nM. Further, the inhibition at 0.2 µM at GSPT1 protein was no less than 70%.

`O=C1CCC(n2ncc3cc(CNC(=O)C4=Cc5cc(F)cc(F)c5OC4)ccc3c2=O)C(=O)N1` (stereo not shown) [Compound T-19, N-((2-(2,6-Dioxopiperidin-3-yl)-1-oxo-1,2-dihydrophthalazin-6-yl)methyl)-6,8-difluoro-2H-chromene-3-carboxamide] returned an IC50 with KG-1 cells of 30 to 300 nM. The molecule also returned an inhibition at 0.2 µM at GSPT1 protein of 30 to 70%.

`Cc1cc2c(cc1Cl)C=C(C(=O)NCc1ccc3c(=O)n(C4CCC(=O)NC4=O)ncc3c1)CO2` (stereo not shown) [Compound T-20, 6-Chloro-N-((2-(2,6-dioxopiperidin-3-yl)-1-oxo-1,2-dihydrophthalazin-6-yl)methyl)-7-methyl-2H-chromene-3-carboxamide] gave an IC50 in the assay on KG-1 cells of 30 to 300 nM. This molecule registered an inhibition at 0.2 µM at GSPT1 protein of 30 to 70%.
